Data: patent publication US6355799B1, “Substituted benzene compounds, process for their preparation, and herbicidal and defoliant compositions containing them” (ISK Americas Incorporated, priority 1997, dated 2002)

Legend:
Type in all cases: in vivo
[1] = tested on: field corn (Zea mays L., var. Dekalb 535, CORN); test: Post-emerge test, crop safety; conditions: phytotoxicity rating 0-100 (0 no damage, 100 complete death), 14 days after application
Procedure, shortened: (§1)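 Fourteen days after spraying, crop and weed injury was graded visually from 0, no effect, to 100, every plant dead. Test substances were dissolved in acetone and applied at 15–1000 g ai/ha with a flat-fan nozzle. Application was either pre-emergence, one day after sowing, or post-emergence at the 2–3 leaf stage.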

[2] = tested on: upland rice (Oryza sp., var. Tebonnet, RICE); test: Post-emerge test, crop safety; conditions: phytotoxicity rating 0-100 (0 no damage, 100 complete death), 14 days after application
Procedure, shortened: as §1

[3] = tested on: ivyleaf morningglory (Ipomoea hederacea, IPOHE); test: Pre-emerge test, greenhouse herbicide activity screening; conditions: pre-emerge, rated 14 days after application, 0 = no damage, 100 = complete death
Procedure, shortened: as §1

[4] = tested on: common ragweed (Ambrosia artemisizfolia L., AMBEL); test: as above; conditions: pre-emerge, rated 14 days after application, 0 = no damage, 100 = complete death
Procedure, shortened: as §1

[5] = tested on: velvetleaf (Abutilon theophrasti, ABUTH); test: as above; conditions: pre-emerge, rated 14 days after application, 0 = no damage, 100 = complete death
Procedure, shortened: as §1

[6] = tested on: lambsquarters (Chenopodium album, CHEAL); test: as above; conditions: pre-emerge, rated 14 days after application, 0 = no damage, 100 = complete death
Procedure, shortened: as §1

[7] = tested on: johnsongrass (Sorghum halepense, SORHA); test: as above; conditions: pre-emerge, rated 14 days after application, 0 = no damage, 100 = complete death
Procedure, shortened: as §1

[8] = tested on: barnyardgrass (Echinochloa crus-galli, ECHCG); test: as above; conditions: pre-emerge, rated 14 days after application, 0 = no damage, 100 = complete death
Procedure, shortened: as §1

[9] = tested on: green foxtail (Setaria viridis, SETVI); test: as above; conditions: pre-emerge, rated 14 days after application, 0 = no damage, 100 = complete death
Procedure, shortened: as §1

[10] = tested on: large crabgrass (Digitaria sanguinalis, DIGSA); test: as above; conditions: pre-emerge, rated 14 days after application, 0 = no damage, 100 = complete death
Procedure, shortened: as §1

[11] = tested on: sicklepod (Cassia obtusifolia, CASOB); test: as above; conditions: pre-emerge, rated 14 days after application, 0 = no damage, 100 = complete death
Procedure, shortened: as §1

[12] = tested on: field corn (Zea mays L., var. Dekalb 535, CORN); test: Pre-emerge test, crop safety; conditions: pre-emerge, rated 14 days after application, 0 = no damage, 100 = complete death
Procedure, shortened: as §1

[13] = tested on: upland rice (Oryza sp., var. Tebonnet, RICE); test: Pre-emerge test, crop safety; conditions: pre-emerge, rated 14 days after application, 0 = no damage, 100 = complete death
Procedure, shortened: as §1

[14] = tested on: ivyleaf morningglory (Ipomoea hederacea, IPOHE); test: Post-emerge test, greenhouse herbicide activity screening; conditions: phytotoxicity rating 0-100 (0 no damage, 100 complete death), 14 days after application
Procedure, shortened: (§2)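 Applied at 15–1000 g ai/ha from acetone in 187 l/ha spray volume. Post-emergence applications included 0.25% v/v non-ionic surfactant and reached plants sown 8–21 days before. Pre-emergence applications were incorporated by surface watering. Efficacy or crop damage was rated on a 0–100 scale after 14 days.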

[15] = tested on: common ragweed (Ambrosia artemisizfolia L., AMBEL); test: as above; conditions: phytotoxicity rating 0-100 (0 no damage, 100 complete death), 14 days after application
Procedure, shortened: as §2

[16] = tested on: velvetleaf (Abutilon theophrasti, ABUTH); test: as above; conditions: phytotoxicity rating 0-100 (0 no damage, 100 complete death), 14 days after application
Procedure, shortened: as §2

[17] = tested on: lambsquarters (Chenopodium album, CHEAL); test: as above; conditions: phytotoxicity rating 0-100 (0 no damage, 100 complete death), 14 days after application
Procedure, shortened: as §2

[18] = tested on: redroot pigweed (Amaranthus retroflexus, AMARE); test: as above; conditions: phytotoxicity rating 0-100 (0 no damage, 100 complete death), 14 days after application
Procedure, shortened: as §2

[19] = tested on: barnyardgrass (Echinochloa crus-galli, ECHCG); test: as above; conditions: phytotoxicity rating 0-100 (0 no damage, 100 complete death), 14 days after application
Procedure, shortened: as §2

[20] = tested on: green foxtail (Setaria viridis, SETVI); test: as above; conditions: phytotoxicity rating 0-100 (0 no damage, 100 complete death), 14 days after application
Procedure, shortened: as §2

[21] = tested on: large crabgrass (Digitaria sanguinalis, DIGSA); test: as above; conditions: phytotoxicity rating 0-100 (0 no damage, 100 complete death), 14 days after application
Procedure, shortened: as §2

[22] = tested on: sicklepod (Cassia obtusifolia, CASOB); test: as above; conditions: phytotoxicity rating 0-100 (0 no damage, 100 complete death), 14 days after application
Procedure, shortened: as §2

[23] = tested on: redroot pigweed (Amaranthus retroflexus, AMARE); test: Pre-emerge test, greenhouse herbicide activity screening; conditions: pre-emerge, rated 14 days after application, 0 = no damage, 100 = complete death
Procedure, shortened: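 Visual ratings on a 0-100 scale (0 no damage, 100 all plants dead) were taken at 14 days after treatment. Rates of 15-1000 g ai/ha in acetone, 187 l/ha, were sprayed onto soil one day after planting (pre-emerge) or onto 2-3 leaf plants with 0.25% v/v surfactant (post-emerge).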

Structure (SMILES): CCOc1c(Cl)cc(F)c(-n2c(=O)cc(C(F)(F)F)n(C)c2=O)c1N [Compound 1-61]
- Post-emerge Herbicidal Activity CORN (crop damage) ([1]; 63 g ai/ha): 10
- Post-emerge Herbicidal Activity CORN (crop damage) ([1]; 250 g ai/ha): 30
- Post-emerge Herbicidal Activity RICE (crop damage) ([2]; 63 g ai/ha): 10
- Post-emerge Herbicidal Activity RICE (crop damage) ([2]; 250 g ai/ha): 35
- Pre-emerge Herbicidal Activity IPOHE (phytotoxicity rating, scale 0-100) ([3]; 63 g ai/ha): 60
- Pre-emerge Herbicidal Activity IPOHE (phytotoxicity rating, scale 0-100) ([3]; 250 g ai/ha): 90
- Pre-emerge Herbicidal Activity AMBEL (phytotoxicity rating, scale 0-100) ([4]; 63 g ai/ha): 60
- Pre-emerge Herbicidal Activity AMBEL (phytotoxicity rating, scale 0-100) ([4]; 250 g ai/ha): 100
- Pre-emerge Herbicidal Activity ABUTH (phytotoxicity rating, scale 0-100) ([5]; 63 g ai/ha): 100
- Pre-emerge Herbicidal Activity ABUTH (phytotoxicity rating, scale 0-100) ([5]; 250 g ai/ha): 100
- Pre-emerge Herbicidal Activity CHEAL (phytotoxicity rating, scale 0-100) ([6]; 63 g ai/ha): 100
- Pre-emerge Herbicidal Activity CHEAL (phytotoxicity rating, scale 0-100) ([6]; 250 g ai/ha): 100
- Pre-emerge Herbicidal Activity SORHA (phytotoxicity rating, scale 0-100) ([7]; 63 g ai/ha): 70
- Pre-emerge Herbicidal Activity SORHA (phytotoxicity rating, scale 0-100) ([7]; 250 g ai/ha): 99
- Pre-emerge Herbicidal Activity ECHCG (phytotoxicity rating, scale 0-100) ([8]; 63 g ai/ha): 75
- Pre-emerge Herbicidal Activity ECHCG (phytotoxicity rating, scale 0-100) ([8]; 250 g ai/ha): 99
- Pre-emerge Herbicidal Activity SETVI (phytotoxicity rating, scale 0-100) ([9]; 63 g ai/ha): 95
- Pre-emerge Herbicidal Activity SETVI (phytotoxicity rating, scale 0-100) ([9]; 250 g ai/ha): 100
- Pre-emerge Herbicidal Activity DIGSA (phytotoxicity rating, scale 0-100) ([10]; 63 g ai/ha): 40
- Pre-emerge Herbicidal Activity DIGSA (phytotoxicity rating, scale 0-100) ([10]; 250 g ai/ha): 99
- Pre-emerge Herbicidal Activity CASOB (phytotoxicity rating, scale 0-100) ([11]; 63 g ai/ha): 30
- Pre-emerge Herbicidal Activity CASOB (phytotoxicity rating, scale 0-100) ([11]; 250 g ai/ha): 80
- Pre-emerge crop damage CORN (phytotoxicity rating, scale 0-100) ([12]; 63 g ai/ha): 60
- Pre-emerge crop damage CORN (phytotoxicity rating, scale 0-100) ([12]; 250 g ai/ha): 95
- Pre-emerge crop damage RICE (phytotoxicity rating, scale 0-100) ([13]; 63 g ai/ha): 50
- Pre-emerge crop damage RICE (phytotoxicity rating, scale 0-100) ([13]; 250 g ai/ha): 95
- Post-emerge Herbicidal Activity IPOHE ([14]; 63 g ai/ha): 100
- Post-emerge Herbicidal Activity IPOHE ([14]; 250 g ai/ha): 100
- Post-emerge Herbicidal Activity AMBEL ([15]; 63 g ai/ha): 70
- Post-emerge Herbicidal Activity AMBEL ([15]; 250 g ai/ha): 85
- Post-emerge Herbicidal Activity ABUTH ([16]; 63 g ai/ha): 70
- Post-emerge Herbicidal Activity ABUTH ([16]; 250 g ai/ha): 100
- Post-emerge Herbicidal Activity CHEAL ([17]; 63 g ai/ha): 30
- Post-emerge Herbicidal Activity CHEAL ([17]; 250 g ai/ha): 70
- Post-emerge Herbicidal Activity AMARE ([18]; 63 g ai/ha): 50
- Post-emerge Herbicidal Activity AMARE ([18]; 250 g ai/ha): 70
- Post-emerge Herbicidal Activity ECHCG ([19]; 63 g ai/ha): 0
- Post-emerge Herbicidal Activity ECHCG ([19]; 250 g ai/ha): 10
- Post-emerge Herbicidal Activity SETVI ([20]; 63 g ai/ha): 10
- Post-emerge Herbicidal Activity SETVI ([20]; 250 g ai/ha): 30
- Post-emerge Herbicidal Activity DIGSA ([21]; 63 g ai/ha): 10
- Post-emerge Herbicidal Activity DIGSA ([21]; 250 g ai/ha): 30
- Post-emerge Herbicidal Activity CASOB ([22]; 63 g ai/ha): 60
- Post-emerge Herbicidal Activity CASOB ([22]; 250 g ai/ha): 70
- Pre-emerge Herbicidal Activity AMARE (phytotoxicity rating, scale 0-100) ([23]; 63 g ai/ha): 95
- Pre-emerge Herbicidal Activity AMARE (phytotoxicity rating, scale 0-100) ([23]; 250 g ai/ha): 100
